Results as given in ChEMBL document CHEMBL5120750, “Bis-bibenzyls, Bibenzyls, and Terpenoids in 33 Genera of the Marchantiophyta (Liverworts): Structures, Synthesis, and Bioactivity” (2022).
≈ marks a conversion by molar mass, not a printed value.

Tests used:
Saccharomyces cerevisiae [1] = assay: Bactericidal activity against Saccharomyces cerevisiae; type: functional
Saccharomyces cerevisiae [2] = assay: Antibacterial activity against Saccharomyces cerevisiae; type: functional

Question: With Oc1cc2cc(c1O)Oc1ccc(cc1)CCc1cccc(O)c1Oc1cccc(c1)CC2 [MARCHANTIN A] as the compound, how does the MBC (Saccharomyces cerevisiae [1]) read?
Answer: The MBC was 0.98 µg/mL (≈ 2.22 µM).

Question: And the MIC (Saccharomyces cerevisiae [2])?
Answer: Its MIC is 0.98 µg/mL (≈ 2.22 µM).

Question: Which results are given for Oc1cccc(CCc2ccc(Oc3cc(CCc4cccc(O)c4)cc(O)c3O)cc2)c1 [PERROTETTIN F]?
Answer: MBC (Saccharomyces cerevisiae [1]): 0.98 µg/mL (≈ 2.21 µM); MIC (Saccharomyces cerevisiae [2]): 0.98 µg/mL (≈ 2.21 µM)
